# Measured values published in ChEMBL document CHEMBL3046164, “A facile synthesis of some 3-cyano-1,4,6-trisubstituted-2(1H)-pyridinones and their biological evaluation as anticancer agents” (2011).
# Experiments:
# Format in all cases: functional
# NCI-H23 = experiment: Growth inhibition of Homo sapiens (human) NCI-H23 cells at 10 uM after 48 hr by SRB assay; settings: NCI-H23, 48 h, read-out: GI
# UO-31 [1] = experiment: Growth inhibition of Homo sapiens (human) UO31 cells at 10 uM after 48 hr by SRB assay; settings: UO-31, 48 h, read-out: GI
# K562 = experiment: Growth inhibition of Homo sapiens (human) K562 cells at 10 uM after 48 hr by SRB assay; settings: K562, 48 h, read-out: GI
# HOP-92 [2] = experiment: Growth inhibition of Homo sapiens (human) HOP92 cells at 10 uM after 48 hr by SRB assay; settings: HOP-92, 48 h, read-out: GI
# RPMI-8226 [3] = experiment: Growth inhibition of Homo sapiens (human) RPMI8226 cells at 10 uM after 48 hr by SRB assay; settings: RPMI-8226, 48 h, read-out: GI
# MOLT-4 = experiment: Growth inhibition of Homo sapiens (human) MOLT4 cells at 10 uM after 48 hr by SRB assay; settings: MOLT-4, 48 h, read-out: GI
# HL-60(TB) [4] = experiment: Growth inhibition of Homo sapiens (human) HL-60(TB) cells at 10 uM after 48 hr by SRB assay; settings: HL-60, 48 h, read-out: GI
# CCRF-CEM [5] = experiment: Growth inhibition of Homo sapiens (human) CCRF-CEM cells at 10 uM after 48 hr by SRB assay; settings: read-out: GI
# SR [6] = experiment: Growth inhibition of Homo sapiens (human) SR cells at 10 uM after 48 hr by SRB assay; settings: read-out: GI
# BT-549 [7] = experiment: Growth inhibition of Homo sapiens (human) BT549 cells at 10 uM after 48 hr by SRB assay; settings: BT-549, 48 h, read-out: GI
# SNB-75 = experiment: Cytotoxicity against Homo sapiens (human) SNB75 cells after 48 hr by SRB assay; settings: SNB-75, 48 h
# UACC-62 = experiment: Cytotoxicity against Homo sapiens (human) UACC62 cells after 48 hr by SRB assay; settings: UACC-62, 48 h
# SF-539 = experiment: Cytotoxicity against Homo sapiens (human) SF539 cells after 48 hr by SRB assay; settings: SF-539, 48 h
# SF-268 = experiment: Cytotoxicity against Homo sapiens (human) SF268 cells after 48 hr by SRB assay; settings: SF-268, 48 h
# HCC 2998 = experiment: Cytotoxicity against Homo sapiens (human) HCC2998 cells after 48 hr by SRB assay; settings: HCC 2998, 48 h
# HOP-92 [8] = experiment: Cytotoxicity against Homo sapiens (human) HOP92 cells after 48 hr by SRB assay; settings: HOP-92, 48 h
# EKVX = experiment: Cytotoxicity against Homo sapiens (human) EKVX cells after 48 hr by SRB assay
# HOP-62 = experiment: Cytotoxicity against Homo sapiens (human) HOP62 cells after 48 hr by SRB assay; settings: HOP-62, 48 h
# SR [9] = experiment: Cytotoxicity against Homo sapiens (human) SR cells after 48 hr by SRB assay
# RPMI-8226 [10] = experiment: Cytotoxicity against Homo sapiens (human) RPMI8226 cells after 48 hr by SRB assay; settings: Homo sapiens, RPMI-8226, 48 h
# CCRF-CEM [11] = experiment: Cytotoxicity against Homo sapiens (human) CCRF-CEM cells after 48 hr by SRB assay
# HL-60(TB) [12] = experiment: Cytotoxicity against Homo sapiens (human) HL-60(TB) cells after 48 hr by SRB assay; settings: HL-60, 48 h
# T47D = experiment: Cytotoxicity against Homo sapiens (human) T47D cells after 48 hr by SRB assay
# BT-549 [13] = experiment: Cytotoxicity against Homo sapiens (human) BT549 cells after 48 hr by SRB assay; settings: BT-549, 48 h
# MDA-MB-231 = experiment: Cytotoxicity against Homo sapiens (human) MDA-MB-231 cells after 48 hr by SRB assay; settings: MDA-MB-231, 48 h
# UO-31 [14] = experiment: Cytotoxicity against Homo sapiens (human) UO31 cells after 48 hr by SRB assay; settings: UO-31, 48 h
# OVCAR-4 = experiment: Cytotoxicity against Homo sapiens (human) OVCAR4 cells after 48 hr by SRB assay; settings: OVCAR-4, 48 h
# A498 [15] = experiment: Cytotoxicity against Homo sapiens (human) A498 cells after 48 hr by SRB assay; settings: A498, 48 h
# OVCAR-3 = experiment: Cytotoxicity against Homo sapiens (human) OVCAR3 cells after 48 hr by SRB assay; settings: OVCAR-3, 48 h
# IGROV-1 = experiment: Cytotoxicity against Homo sapiens (human) IGROV1 cells after 48 hr by SRB assay; settings: IGROV-1, 48 h
# A498 [16] = experiment: Growth inhibition of Homo sapiens (human) A498 cells at 10 uM after 48 hr by SRB assay; settings: A498, 48 h, read-out: GI
# OVCAR-5 = experiment: Growth inhibition of Homo sapiens (human) OVCAR5 cells at 10 uM after 48 hr by SRB assay; settings: OVCAR-5, 48 h, read-out: GI
# PC-3 = experiment: Growth inhibition of Homo sapiens (human) PC3 cells at 10 uM after 48 hr by SRB assay; settings: PC-3, 48 h, read-out: GI
smiles,measurement,setting,value
COc1ccc(-c2cc(-c3cccs3)n(Cc3ccccc3)c(=O)c2C#N)cc1,inhibition of growth at 10 µM,NCI-H23,21%
same,inhibition of growth at 10 µM,UO-31 [1],23.5%
same,inhibition of growth at 10 µM,K562,50.4%
same,inhibition of growth at 10 µM,HOP-92 [2],26.8%
COc1ccc(-c2cc(-c3cccs3)n(S(=O)(=O)c3ccccc3)c(=O)c2C#N)cc1,inhibition of growth at 10 µM,NCI-H23,20%
same,inhibition of growth at 10 µM,RPMI-8226 [3],22%
same,inhibition of growth at 10 µM,MOLT-4,28.1%
same,inhibition of growth at 10 µM,HL-60(TB) [4],55%
same,inhibition of growth at 10 µM,CCRF-CEM [5],56.2%
same,inhibition of growth at 10 µM,K562,27.7%
same,inhibition of growth at 10 µM,HOP-92 [2],21.3%
COc1ccc(-c2cc(-c3cccs3)n3c(C)nnc3c2C#N)cc1,inhibition of growth at 10 µM,HOP-92 [2],23.5%
COc1ccc(-c2cc(-c3cccn3C)c(C#N)c(=O)n2S(=O)(=O)c2ccccc2)cc1OC,inhibition of growth at 10 µM,SR [6],31.4%
same,inhibition of growth at 10 µM,BT-549 [7],21%
same,inhibition of growth at 10 µM,HOP-92 [2],25.8%
COc1ccc(-c2cc(-c3cccn3C)c(C#N)c(=O)n2Cc2ccccc2)cc1OC,inhibition of growth at 10 µM,RPMI-8226 [3],64.1%
Cn1cccc1-c1cc(-c2ccc(Br)cc2)[nH]c(=O)c1C#N,GI50,SNB-75,25.7 µM
same,GI50,UACC-62,48.9 µM
same,GI50,SF-539,89.1 µM
same,GI50,SF-268,> 100 µM
same,GI50,HCC 2998,> 100 µM
same,GI50,HOP-92 [8],> 100 µM
same,GI50,EKVX,27.5 µM
same,GI50,HOP-62,34.7 µM
same,GI50,SR [9],> 100 µM
same,GI50,RPMI-8226 [10],57.5 µM
same,GI50,CCRF-CEM [11],47.3 µM
same,GI50,HL-60(TB) [12],> 100 µM
same,GI50,T47D,> 100 µM
same,GI50,BT-549 [13],85.1 µM
same,GI50,MDA-MB-231,83.2 µM
same,GI50,UO-31 [14],69.2 µM
same,GI50,OVCAR-4,> 100 µM
same,GI50,A498 [15],54.9 µM
same,GI50,OVCAR-3,85.1 µM
same,GI50,IGROV-1,77.6 µM
Cn1cccc1-c1cc(-c2ccc(Br)cc2)n(N=O)c(=O)c1C#N,inhibition of growth at 10 µM,A498 [16],25.7%
same,inhibition of growth at 10 µM,SR [6],37.5%
same,inhibition of growth at 10 µM,BT-549 [7],32.8%
same,inhibition of growth at 10 µM,HOP-92 [2],28.2%
COc1ccc(-c2cc(-c3cccs3)[nH]c(=O)c2C#N)cc1,GI50,SNB-75,39.8 µM
same,GI50,UACC-62,> 100 µM
same,GI50,SF-539,> 100 µM
same,GI50,SF-268,> 100 µM
same,GI50,HCC 2998,> 100 µM
same,GI50,HOP-92 [8],> 100 µM
same,GI50,EKVX,> 100 µM
same,GI50,HOP-62,> 100 µM
same,GI50,SR [9],60.2 µM
same,GI50,RPMI-8226 [10],22.4 µM
same,GI50,CCRF-CEM [11],23.4 µM
same,GI50,HL-60(TB) [12],45.7 µM
same,GI50,T47D,> 100 µM
same,GI50,BT-549 [13],> 100 µM
same,GI50,MDA-MB-231,> 100 µM
same,GI50,UO-31 [14],> 100 µM
same,GI50,OVCAR-4,69.2 µM
same,GI50,A498 [15],> 100 µM
same,GI50,OVCAR-3,> 100 µM
same,GI50,IGROV-1,> 100 µM
COc1ccc(-c2cc(-c3cccn3C)c(C#N)c(=O)n2N=O)cc1OC,inhibition of growth at 10 µM,K562,26.6%
same,inhibition of growth at 10 µM,HOP-92 [2],26.8%
COc1ccc(-c2cc(-c3cccn3C)c(C#N)c(=O)[nH]2)cc1OC,GI50,SNB-75,23.9 µM
same,GI50,UACC-62,66.1 µM
same,GI50,SF-539,67.6 µM
same,GI50,SF-268,> 100 µM
same,GI50,HCC 2998,89.1 µM
same,GI50,HOP-92 [8],> 100 µM
same,GI50,EKVX,0.05 µM
same,TGI,EKVX,9.77 µM
same,GI50,HOP-62,30.9 µM
same,GI50,SR [9],0.48 µM
same,GI50,RPMI-8226 [10],22.9 µM
same,GI50,CCRF-CEM [11],5.01 µM
same,GI50,HL-60(TB) [12],> 100 µM
same,GI50,T47D,34.7 µM
same,GI50,BT-549 [13],> 100 µM
same,GI50,MDA-MB-231,> 100 µM
same,GI50,UO-31 [14],85.1 µM
same,GI50,OVCAR-4,> 100 µM
same,GI50,A498 [15],56.2 µM
same,GI50,OVCAR-3,> 100 µM
same,GI50,IGROV-1,91.2 µM
Cn1cccc1-c1cc(-c2ccc(Br)cc2)n(C=O)c(=O)c1C#N,inhibition of growth at 10 µM,UO-31 [1],29.7%
same,inhibition of growth at 10 µM,K562,54.8%
same,inhibition of growth at 10 µM,HOP-92 [2],24.2%
same,inhibition of growth at 10 µM,OVCAR-5,26.9%
Cc1nnc2c(C#N)c(-c3cccn3C)cc(-c3ccc(Br)cc3)n12,inhibition of growth at 10 µM,PC-3,24%
same,inhibition of growth at 10 µM,RPMI-8226 [3],43.2%
same,inhibition of growth at 10 µM,CCRF-CEM [5],66%
same,inhibition of growth at 10 µM,HOP-92 [2],30%
